EP0775133B1, “NAPHTHALENE AMIDES HAVING LEUKOTRIENE-ANTAGONISTIC ACTION” (LABORATORIOS MENARINI S.A., priority 1994, dated 1996)
Counter-ions that a name gives are not always drawn.

Legend:
[1] = target: T1, LTD4 receptors (Cavia porcellus, UniProt Q2NNR5); assay: [3H]-LTD4 receptor binding inhibition test in guinea-pig lung membranes; settings: 0.5 nM [3H]-LTD4, 30 minutes at 25°C, Cheng-Prusoff
T1 construct: Guinea pig lung membranes, containing the LTD4 receptors; from tissue; host or cells: guinea-pig lung membranes
T1 sequence (Q2NNR5 1-340): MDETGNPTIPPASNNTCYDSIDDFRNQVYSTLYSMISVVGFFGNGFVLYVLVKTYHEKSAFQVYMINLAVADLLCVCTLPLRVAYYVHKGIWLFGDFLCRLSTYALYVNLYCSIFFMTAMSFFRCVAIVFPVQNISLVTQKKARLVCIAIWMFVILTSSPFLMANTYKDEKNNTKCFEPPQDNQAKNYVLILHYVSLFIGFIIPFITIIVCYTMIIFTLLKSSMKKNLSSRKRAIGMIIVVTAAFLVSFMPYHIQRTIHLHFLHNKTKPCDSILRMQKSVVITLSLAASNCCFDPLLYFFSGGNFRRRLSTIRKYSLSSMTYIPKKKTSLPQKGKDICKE
Protocol: [^3H]-LTD4 receptor binding inhibition test in quinea-pig lung membranes
These purified membranes (150 µg/ml) are added to an incubation mixture containing 10 mM of PIPES buffer (piperazin-N,N'-bis(2-ethanesulfonic acid) (pH 7.4), 10 mM of CaCl2, 10 mM of 5 MgCl2, 2 mM of cysteine, 2 mM of glycine, 0.5 nM of [^3H]-LTD4 (4700-6400 GBq/mmol) and different concentrations of the product under test in a final volume of 310 µl. The reaction mixture is incubated for 30 minutes at 25°C.
The radioligand bound to the membranes is separated from the free one by dilution with 4 ml washing buffer (10 mM Tris-HCl (pH 7.4) and 100 mM NaCl) at 0°C and filtration with Whatman GF/B filters, by means of a Brandel Cell Harvester. The filters are washed 4 times with a total volume of 16 ml of washing buffer at 0°C. The radioactivity present in the filters is determined by liquid scintillation.
The specific binding is defined as the difference between the total binding of [^3H]-LTD4 and the nonspecific binding determined in the presence of 1 µM LTD4.

[2] = system: mienteric plexus of guinea-pig isolated ileum; assay: Inhibition of LTD4-induced contractions in the mienteric plexus of guinea-pig isolated ileum; settings: LTD4 3 nM, compound incubated 2.5 minutes
Protocol: Inhibition test of the contractions induced by LTD4 in the mienteric plexus of quinea-pig isolated ileum.
The antagonistic activity of the compounds of the present invention in the isolated organ was evaluated as its ability to inhibit the contraction caused by LTD4 in the mienteric plexus of the ileum of Dunkin Hartley male albino guinea-pig, weighing 300-350 g (Cristol J.P. and Sirois P. Res. Commun. Chem. Pathol., 59, 423 (1988)).
The mienteric plexus is extracted from a 2-3 cm segment of the terminal portion of the guinea-pig ileum, previously sacrificed by cervical dislocation. The plexus is put, at a tension of 0.5 g, in a 5 ml organ bath, containing a solution of Tyrode (137 mM NaCl, 2.7 mM KCl, 1.4 mM CaCl2, 0.4 mM NaH2PO4, 11.9 mM NaHCO3, 0.8 mM MgSO4, 5.5 mM glucose), saturated with carbogen gas (95% 02-5% CO2) at 37°C. The solution also contains indomethacin (3.3 µM) and atropine (0.4 µM) to remove the action of the intrinsic prostaglandins and the cholinergic responses.
After a 45 minute stabilization period a maximum isotonic response is obtained (100% contractile response) adding to the bath chamber the LTD4 agonist (3 nM). This process is repeated until the same contraction response is obtained twice. The […] measures are made in an isotonic transducer.
After stabilization is restored, the product under test is incubated at different concentrations (dissolved in 0.1% final concentration DMSO) for 2.5 minutes, and after that the contraction with LTD4 is induced again.
The antagonistic activity is expressed as IC50, the concentration of compound which reduces by 50% the maximum contraction.

| Compound | Ki [1] [nM] | IC50 [2] [nM] |
| --- | --- | --- |
| CC(C(=O)NCc1ccccc1-c1nnn[nH]1)c1ccc2cc(OCc3ccc4ccccc4n3)ccc2c1 (centres unmarked) [Example 3, N-[2-(1H-5-tetrazolyl)phenylmethyl]-2-[6-(2-quinolinylmethoxy)-2-naphthyl]propanamide] | 12 ± 3 | 18 |
| CC(C(=O)Nc1cccc(CC(=O)O)c1)c1ccc2cc(OCc3ccc4ccccc4n3)ccc2c1 (centres unmarked) [Example 18, 3-[2-[6-(2-Quinolinylmethoxy)-2-naphthyl]propanamido]phenylacetic acid] | 134 ± 18 |  |
| O=C(O)CCCc1ccc(NC(=O)c2ccc3cc(OCc4ccc5ccccc5n4)ccc3c2)cc1 [Example 23, 4-[4-[[6-(2-quinolinylmethoxy)-2-naphthyl]carboxamido]phenyl]butanoic acid] | 30 ± 1.2 | > 100 |
| CC(C(=O)NCc1cccc(C(=O)O)c1)c1ccc2cc(OCc3ccc4ccccc4n3)ccc2c1 (centres unmarked) [Example 14, 3-[2-[6-(2-quinolinylmethoxy)-2-naphthyl]propanamidomethyl]benzoic acid] | 68 ± 5 | 75 |
| CC(C(=O)NCc1cccc(-c2nnn[nH]2)c1)c1ccc2cc(OCc3ccc4ccccc4n3)ccc2c1 (centres unmarked) [Example 2, N-[3-(1H-5-tetrazolyl)phenylmethyl]-2[6-(2-quinolinylmethoxy)-2-naphthyl]propanamide] | 29.5 ± 3 | 66 |
| CC(C(=O)Nc1ccc(CCCC(=O)O)cc1)c1ccc2cc(OCc3ccc4ccccc4n3)ccc2c1 (centres unmarked) [Example 10, 4-[4-[2-[6-(2-quinolinylmethoxy)-2-naphthyl]propanamido]phenyl]butanoic acid] | 38.5 ± 6.3 | > 100 |
| O=C(O)c1ccc(CCNC(=O)c2ccc3ccc(OCc4ccc5ccccc5n4)cc3c2)cc1 [Example 29, 4-[2-[[7-(2-quinolinylmethoxy)-2-naphthyl]carboxamido]ethyl]benzoic acid] | 1 ± 0.1 | 8 |
| O=C(O)CCCc1ccc(NC(=O)c2ccc3ccc(OCc4ccc5ccccc5n4)cc3c2)cc1 [Example 26, 4-[4-[[7-(2-quinolinylmethoxy)-2-naphthyl]carboxamido]phenyl]butanoic acid] |  | 38 |
| CC(C(=O)Nc1ccc(Cc2nn[nH]n2)cc1)c1ccc2cc(OCc3ccc4ccccc4n3)ccc2c1 (centres unmarked) [Example 6, N-[4-(1H-5-tetrazolyl)methylphenyl]-2-[6-(2-quinolinylmethoxy)-2-naphthyl]propanamide (sodium salt)] | 32.7 ± 3 | > 100 |
| CC(C(=O)NCc1ccc(-c2nnn[nH]2)cc1)c1ccc2cc(OCc3ccc4ccccc4n3)ccc2c1 (centres unmarked) [Example 1, N-[4-(1H-5-tetrazolyl)phenylmethyl]-2-[6-(2-quinolinylmethoxy)-2-naphthyl]propanamide] |  | 13 |
| CC(C(=O)Nc1ccc(Cc2nnn[nH]2)cc1)c1ccc2cc(OCc3ccc4ccccc4n3)ccc2c1 (centres unmarked) [Example 5, N-[4-(1H-5-tetrazolyl)methylphenyl]-2-[6-(2-quinolinylmethoxy)-2-naphthyl]propanamide] | 34 ± 5 | > 100 |

Further lines, results first:

| Ki [1] [nM] | IC50 [2] [nM] | Compound |
| --- | --- | --- |
| 44 ± 15 |  | O=C(O)CCCc1ccc(C(=O)NCc2ccc3cc(OCc4ccc5ccccc5n4)ccc3c2)cc1 [Example 32, 4-[4-[[6-(2-quinolinylmethoxy)-2-naphthyl]methylaminocarbonyl]phenyl]butanoic acid] |
| 13.1 ± 2 | 87 | O=C(NCCCc1ccc(-c2nnn[nH]2)cc1)c1ccc2ccc(OCc3ccc4ccccc4n3)cc2c1 [Example 33, N-[4-(1H-5-tetrazolyl)phenylpropyl]-7-(2-quinolinylmethoxy)-2-naphthalenecarboxamide] |
| 7.8 ± 2 | 28 | O=C(NCc1ccc(-c2nnn[nH]2)cc1)c1ccc2ccc(OCc3ccc4ccccc4n3)cc2c1 [Example 27, N-[4-(1H-5-tetrazolyl)phenylmethyl]-7-(2-quinolinylmethoxy)-2-naphthalenecarboxamide] |
|  | 24 | O=C(NCCc1ccc(-c2nnn[nH]2)cc1)c1ccc2ccc(OCc3ccc4ccccc4n3)cc2c1 [Example 30, N-[4-(1H-5-tetrazolyl)phenylethyl]-7-(2-quinolinylmethoxy)-2-naphthalenecarboxamide] |
| 5.5 ± 0.5 | 6 | O=C(Cc1ccc2cc(OCc3ccc4ccccc4n3)ccc2c1)NCc1ccc(-c2nnn[nH]2)cc1 [Example 21, N-[4-(1H-5-tetrazolyl)phenylmethyl]-6-(2-quinolinylmethoxy)-2-naphthaleneacetamide] |
| 28 ± 3 |  | O=C(NCc1cccc(-c2nnn[nH]2)c1)c1ccc2cc(OCc3ccc4ccccc4n3)ccc2c1 [Example 24, N-[3-(1H-5-tetrazolyl)phenylmethyl]-6-(2-quinolinylmethoxy)-2-naphthalenecarboxamide] |
| 190 ± 21 |  | CC(C(=O)Nc1ccc(CCCC(=O)O)cc1)c1ccc2cc(OCc3ccc4ccc(Cl)cc4n3)ccc2c1 (centres unmarked) [Example 20, 4-[4-[2-[6-[(7-chloro-2-quinolinyl)-methoxy]-2-naphthyl]propanamido]phenyl]butanoic acid] |
